Source: ChEMBL document CHEMBL1123458, “2-Phenylindenes: development of a new mammary tumor inhibiting antiestrogen by combination of estrogenic side effect lowering structural elements” (1986)

How the values were obtained:
[1] = target: T1, Estrogen receptor (Mus musculus) (UniProt O08537+P19785); test: Anti-uterotrophic effect in immature mice at 25 ug; format: functional
[2] = target: T1, Estrogen receptor (Mus musculus); test: Anti-uterotrophic effect in immature mice at 1.0 ug; format: functional
[3] = target: Estrogen receptor (Bos taurus) (UniProt Q9XSB5+P49884); test: Inhibition of [3H]estradiol binding to calf uterine estrogen receptor; format: protein assay
[4] = target: T1, Estrogen receptor (Mus musculus); test: Anti-uterotrophic effect in mice at 1.0 ug; format: functional
[5] = target: T1, Estrogen receptor (Mus musculus); test: Anti-uterotrophic effect in mice at 25 ug; format: functional
[6] = target: T1, Estrogen receptor (Mus musculus); test: Anti-uterotrophic effect in immature mice at 5 ug; format: functional
[7] = target: T1, Estrogen receptor (Mus musculus); test: Anti-uterotrophic effect in immature mice at 100 ug; format: functional
[8] = target: T1, Estrogen receptor (Mus musculus); test: Anti-uterotrophic effect in mice at 100 ug; format: functional
[9] = target: T1, Estrogen receptor (Mus musculus); test: Anti-uterotrophic effect in mice at 5 ug; format: functional

T1 sequence (O08537 whole entry, looked up): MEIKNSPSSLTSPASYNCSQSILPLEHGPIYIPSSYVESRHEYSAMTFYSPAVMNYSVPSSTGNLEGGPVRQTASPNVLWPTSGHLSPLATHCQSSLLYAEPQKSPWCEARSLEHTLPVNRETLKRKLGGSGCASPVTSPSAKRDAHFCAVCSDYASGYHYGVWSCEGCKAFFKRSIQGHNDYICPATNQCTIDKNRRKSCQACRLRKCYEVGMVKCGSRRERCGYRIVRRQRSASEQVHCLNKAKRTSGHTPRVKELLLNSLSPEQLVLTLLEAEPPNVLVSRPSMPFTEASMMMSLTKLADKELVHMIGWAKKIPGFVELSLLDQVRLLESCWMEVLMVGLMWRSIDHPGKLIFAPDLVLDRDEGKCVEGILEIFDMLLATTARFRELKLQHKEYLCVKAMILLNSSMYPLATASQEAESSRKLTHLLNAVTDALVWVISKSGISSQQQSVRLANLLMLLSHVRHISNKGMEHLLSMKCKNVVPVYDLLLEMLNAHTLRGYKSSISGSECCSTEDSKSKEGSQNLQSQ
T1 sequence (P19785 whole entry, looked up): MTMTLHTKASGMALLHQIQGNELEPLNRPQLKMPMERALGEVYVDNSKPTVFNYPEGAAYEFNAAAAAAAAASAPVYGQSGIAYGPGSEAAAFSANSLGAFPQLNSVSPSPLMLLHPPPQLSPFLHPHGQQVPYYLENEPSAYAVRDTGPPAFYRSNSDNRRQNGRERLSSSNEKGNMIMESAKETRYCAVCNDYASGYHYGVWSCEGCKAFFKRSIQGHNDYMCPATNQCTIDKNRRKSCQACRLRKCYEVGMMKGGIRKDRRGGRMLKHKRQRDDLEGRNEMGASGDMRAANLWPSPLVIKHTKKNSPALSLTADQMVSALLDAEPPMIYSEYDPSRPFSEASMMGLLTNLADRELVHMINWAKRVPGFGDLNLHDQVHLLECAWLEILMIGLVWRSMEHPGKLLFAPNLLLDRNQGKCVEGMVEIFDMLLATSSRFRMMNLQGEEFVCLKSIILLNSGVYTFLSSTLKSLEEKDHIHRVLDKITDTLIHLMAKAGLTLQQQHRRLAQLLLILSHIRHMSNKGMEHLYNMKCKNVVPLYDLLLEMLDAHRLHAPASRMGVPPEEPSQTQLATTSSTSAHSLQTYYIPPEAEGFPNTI

SMILES: CC(=O)c1cccc(C2=C(C(C)C)c3cc(C(C)=O)ccc3C2(C)C)c1
- inhibition [1]: 0%
- inhibition [2]: 21%
- RBA [3]: 2%
- Effect [4]: 30.3 mg 100g-1
- Effect [5]: 44.7 mg 100g-1

SMILES: CC(=O)c1ccc(C2=C(C(C)C)c3cc(C(C)=O)c(C(C)=O)cc3C2(C)C)cc1C(C)=O
- inhibition [1]: 11%
- inhibition [2]: 28%
- RBA [3]: 1.7%
- Effect [4]: 29 mg 100g-1
- Effect [5]: 32.5 mg 100g-1

SMILES: CC/C(=C(/CC)c1cccc(C(C)=O)c1)c1cccc(C(C)=O)c1
- RBA [3]: 2.2%

SMILES: CC/C(=C(/CC)c1ccc(C(C)=O)c(C(C)=O)c1)c1ccc(C(C)=O)c(C(C)=O)c1
- inhibition [1]: 8%
- inhibition [6]: 54%
- inhibition [7]: 5%
- inhibition [2]: 31%
- RBA [3]: 1%
- Effect [8]: 41.3 mg 100g-1
- Effect [4]: 33.8 mg 100g-1
- Effect [5]: 40.4 mg 100g-1
- Effect [9]: 27.4 mg 100g-1

SMILES: CCC1=C(c2cccc(C(C)=O)c2)C(C)c2ccc(C(C)=O)cc21 (configuration not stated)
- inhibition [1]: 9%
- inhibition [6]: 30%
- inhibition [2]: 48%
- RBA [3]: 1.8%
- Effect [4]: 30.1 mg 100g-1
- Effect [5]: 40.2 mg 100g-1
- Effect [9]: 34.8 mg 100g-1
